Test results reported in US5922580A, “Non-reducing saccharide-forming enzyme, its preparation and uses” (priority 1992, dated 1999).

Assays:
[1] = Hygroscopicity of product; format: physicochemical; details: powdery product
[2] = target: T1, trehalase derived from pig kidney (Sus scrofa, UniProt I3LIR5); assay: Hydrolysis by trehalase; format: biochemical; details: one unit trehalase, pH 5.7, 37° C., 18 hours; HPLC
T1 construct: purchased Sigma Chemical Company, St. Louis, USA; host or cells: pig kidney
T1 sequence (I3LIR5 24-583): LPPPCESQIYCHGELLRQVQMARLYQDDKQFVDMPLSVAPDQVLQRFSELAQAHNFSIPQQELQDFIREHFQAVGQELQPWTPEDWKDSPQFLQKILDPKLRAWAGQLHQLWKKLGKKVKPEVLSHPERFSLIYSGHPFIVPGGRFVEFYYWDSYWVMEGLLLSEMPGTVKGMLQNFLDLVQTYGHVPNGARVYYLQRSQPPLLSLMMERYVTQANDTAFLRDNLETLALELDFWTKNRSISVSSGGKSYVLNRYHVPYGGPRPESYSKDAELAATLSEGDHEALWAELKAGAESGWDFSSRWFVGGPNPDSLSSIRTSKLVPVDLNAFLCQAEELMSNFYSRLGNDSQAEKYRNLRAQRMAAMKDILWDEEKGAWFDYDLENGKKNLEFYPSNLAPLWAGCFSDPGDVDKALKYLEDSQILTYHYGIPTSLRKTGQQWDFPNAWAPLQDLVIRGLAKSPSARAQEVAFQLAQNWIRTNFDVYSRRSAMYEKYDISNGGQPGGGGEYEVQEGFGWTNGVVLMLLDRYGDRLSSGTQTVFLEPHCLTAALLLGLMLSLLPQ

β-amylase = β-amylase (Glycine max, UniProt P10538); assay: Hydrolysis by β-amylase; format: biochemical; details: similarly as with glucoamylase
Chain of β-amylase (P10538 whole entry, species assumed): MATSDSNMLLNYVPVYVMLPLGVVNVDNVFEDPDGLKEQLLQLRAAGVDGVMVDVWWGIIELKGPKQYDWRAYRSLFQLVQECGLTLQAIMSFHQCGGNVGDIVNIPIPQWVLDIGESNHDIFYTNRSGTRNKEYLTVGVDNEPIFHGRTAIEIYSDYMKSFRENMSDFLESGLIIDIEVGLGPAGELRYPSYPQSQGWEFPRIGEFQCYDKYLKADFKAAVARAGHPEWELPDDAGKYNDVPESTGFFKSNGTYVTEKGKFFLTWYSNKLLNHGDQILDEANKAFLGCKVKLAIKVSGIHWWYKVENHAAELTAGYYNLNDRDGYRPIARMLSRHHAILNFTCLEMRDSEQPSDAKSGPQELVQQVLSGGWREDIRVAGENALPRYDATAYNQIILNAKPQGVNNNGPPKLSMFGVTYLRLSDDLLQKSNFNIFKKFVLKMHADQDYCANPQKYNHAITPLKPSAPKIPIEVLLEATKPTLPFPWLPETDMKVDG

[3] = tested on: rat intestinal acetone powder; assay: Hydrolysis by rat intestinal acetone powder; format: in vitro ADME; details: 50 mM maleate buffer pH 6.0, 37° C., 18 hours
Protocol: (§1) The enzymatic reaction with the α-amylase was as follows: Dissolving 10 mg of a substrate in one ml of 50 mM phosphate buffer (pH 6.9), mixing the resultant solution with one unit of the α-amylase, and incubating the resultant mixture at 37° C. for 18 hours. The enzymatic reaction with the α-glucosidase was conducted under the same conditions as in the case of α-amylase except that 50 mM acetate buffer (pH 4.0) was used as a buffer. The enzymatic reaction with the rat intestinal acetone powder was carried out under the same conditions as in the case of α-amylase except that 50 mM maleate buffer (pH 6.0) was used as a buffer.

[4] = Reducing power by Somogyi-Nelson's method expressed as DE; format: physicochemical; details: high-purity saccharide preparations of Experiment 4
Protocol: The reducing powders of these novel saccharides were determined on the Somogyi-Nelson's method and expressed by DE (dextrose equivalent).

glucoamylase = assay: Enzymatic hydrolysis by glucoamylase; format: biochemical; details: for Glucose / Trehalose: 50 mg in 1 ml 50 mM acetate buffer pH 4.5, one unit glucoamylase, 40° C., 6 hours, HPLC; for Molecular ratio (Glucose/Trehalose): glucoamylase hydrolysate
Protocol: Fifty mg aliquots of non-reducing saccharides P I, P II, P III, P IV and P V in Experiment 4 were respectively dissolved in one ml of 50 mM acetate buffer (pH 4.5), admixed with one unit of glucoamylase commercialized by Seikagaku-Kogyo Co., Ltd., Tokyo, Japan, to effect enzymatic hydrolysis at 40° C. for 6 hours. The only saccharides detected in every resultant mixture on HPLC analysis were glucose and trehalose.

[5] = Maillard reaction with glycine; format: physicochemical; details: for Coloration degree (480 nm): 1% glycine, 10% saccharide, 50 mM phosphate buffer pH 7.0, 100° C. for 90 min, absorbance in 1-cm cell; for Coloration degree relative to corresponding material maltooligosaccharide: Maillard reaction, 480 nm
Protocol: As a control, maltotriose, maltotetraose, maltopentaose, maltohexaose and maltoheptaose as a material for the saccharide preparations were similarly treated as above, and measured their absorbances were measured at a wave length of 480 nm.

[6] = target: T2, α-glucosidase specimen derived from rice (Oryza sativa subsp. japonica, UniProt Q653V7); assay: Hydrolysis by α-glucosidase; format: biochemical; details: 50 mM acetate buffer pH 4.0, 37° C., 18 hours
T2 construct: purchased Sigma Chemical Company, St. Louis, USA; host or cells: rice
T2 sequence (Q653V7 34-885): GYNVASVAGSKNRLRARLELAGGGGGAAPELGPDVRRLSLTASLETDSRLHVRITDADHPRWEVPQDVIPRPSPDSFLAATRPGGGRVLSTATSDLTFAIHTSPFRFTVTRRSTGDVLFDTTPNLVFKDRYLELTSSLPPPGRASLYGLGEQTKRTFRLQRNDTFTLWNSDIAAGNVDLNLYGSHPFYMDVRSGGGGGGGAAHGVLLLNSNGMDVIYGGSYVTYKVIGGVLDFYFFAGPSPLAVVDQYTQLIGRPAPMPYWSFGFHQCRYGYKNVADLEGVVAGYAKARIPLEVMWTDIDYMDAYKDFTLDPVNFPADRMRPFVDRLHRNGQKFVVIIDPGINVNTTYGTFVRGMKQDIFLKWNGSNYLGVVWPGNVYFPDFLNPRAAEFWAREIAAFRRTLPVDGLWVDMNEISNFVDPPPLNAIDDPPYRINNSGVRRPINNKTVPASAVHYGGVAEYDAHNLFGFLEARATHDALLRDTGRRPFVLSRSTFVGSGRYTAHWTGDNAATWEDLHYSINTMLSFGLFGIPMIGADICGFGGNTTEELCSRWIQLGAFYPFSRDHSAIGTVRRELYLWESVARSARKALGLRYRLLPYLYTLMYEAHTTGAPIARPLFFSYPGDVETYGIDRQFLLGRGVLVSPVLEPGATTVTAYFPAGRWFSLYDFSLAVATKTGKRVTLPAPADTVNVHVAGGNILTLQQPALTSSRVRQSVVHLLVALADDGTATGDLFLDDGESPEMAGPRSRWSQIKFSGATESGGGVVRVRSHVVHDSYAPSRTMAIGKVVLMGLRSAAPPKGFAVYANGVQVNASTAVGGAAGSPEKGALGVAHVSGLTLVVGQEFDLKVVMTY
Protocol: as §1

[7] = target: T3, α-amylase specimen derived from pig pancreas (Sus scrofa, UniProt P00690); assay: Hydrolysis by α-amylase; format: biochemical; parameters: Saccharide composition of hydrolysate: P I / Saccharide composition of hydrolysate: P II / Saccharide composition of hydrolysate: G3 (maltotriose) / Saccharide composition of hydrolysate: G2 (maltose) / Saccharide composition of hydrolysate: G1 (glucose): unit not given here; details: for Hydrolysis by α-amylase: conclusion from Table 6; for Saccharide composition of hydrolysate: G1 (glucose) / Saccharide composition of hydrolysate: G2 (maltose) / Saccharide composition of hydrolysate: G3 (maltotriose) / Saccharide composition of hydrolysate: P I / Saccharide composition of hydrolysate: P II: α-amylase, 10 mg/ml, pH 6.9, 37° C., 18 hours, HPLC
T3 construct: purchased Sigma Chemical Company, St. Louis, USA; host or cells: pig pancreas
T3 sequence (P00690 16-511): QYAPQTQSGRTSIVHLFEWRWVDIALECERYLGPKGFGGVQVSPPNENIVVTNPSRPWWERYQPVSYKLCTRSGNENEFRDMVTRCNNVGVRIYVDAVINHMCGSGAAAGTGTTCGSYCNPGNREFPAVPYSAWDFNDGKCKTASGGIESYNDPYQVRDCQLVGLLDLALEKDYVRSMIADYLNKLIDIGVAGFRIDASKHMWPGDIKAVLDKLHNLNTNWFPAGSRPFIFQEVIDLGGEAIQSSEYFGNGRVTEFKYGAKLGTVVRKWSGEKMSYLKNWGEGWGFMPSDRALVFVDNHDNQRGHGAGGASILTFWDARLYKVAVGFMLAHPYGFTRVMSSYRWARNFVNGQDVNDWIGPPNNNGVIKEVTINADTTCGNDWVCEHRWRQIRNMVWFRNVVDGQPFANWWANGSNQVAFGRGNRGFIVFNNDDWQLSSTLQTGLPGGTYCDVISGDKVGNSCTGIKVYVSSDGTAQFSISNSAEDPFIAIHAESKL
Protocol: as §1

[8] = tested on: 7-week old dd-strain mice; assay: Acute toxicity test, oral; format: in vivo; details: for LD50: mouse, in vivo, po; for Death of mice: oral, highest possible doses

| SMILES | Hydrolysis by β-amylase (β-amylase) | Saccharide composition of hydrolysate with rat intestinal acetone powder: Glucose [3] [%] | Saccharide composition of hydrolysate with rat intestinal acetone powder: Other saccharides [3] [%] | Saccharide composition of hydrolysate with rat intestinal acetone powder: Trehalose [3] [%] | DE [4] | Glucose (glucoamylase) [%] | Trehalose (glucoamylase) [%] | Molecular ratio (Glucose/Trehalose) (glucoamylase) | Coloration degree (480 nm) [5] | Coloration degree relative to corresponding material maltooligosaccharide [5] | Saccharide composition of hydrolysate with α-glucosidase: Glucose [6] [%] | Saccharide composition of hydrolysate with α-glucosidase: Other saccharides [6] [%] | Saccharide composition of hydrolysate with α-glucosidase: Trehalose [6] [%] | Hydrolysis by α-amylase [7] | Saccharide composition of hydrolysate: G1 (glucose) [7] | Saccharide composition of hydrolysate: G2 (maltose) [7] | Saccharide composition of hydrolysate: G3 (maltotriose) [7] | Saccharide composition of hydrolysate: P I [7] | Saccharide composition of hydrolysate: P II [7] | Death of mice [8] | also measured |
| --- | --- | --- | --- | --- | --- | --- | --- | --- | --- | --- | --- | --- | --- | --- | --- | --- | --- | --- | --- | --- | --- |
| OC[C@H]1O[C@H](O[C@H]2O[C@H](CO)[C@@H](O)[C@H](O)[C@H]2O)[C@H](O)[C@@H](O)[C@@H]1O [Example A-6, trehalose] |  |  |  |  |  |  |  |  |  |  |  |  |  |  |  |  |  |  |  |  | Hygroscopicity [1]: no substantial hygroscopicity |
| OC[C@H]1O[C@H](O[C@H]2O[C@H](CO)[C@@H](O)[C@H](O)[C@H]2O)[C@H](O)[C@@H](O)[C@@H]1O [trehalose, α, α-trehalose] |  |  |  |  |  |  |  |  |  |  |  |  |  |  |  |  |  |  |  |  | Hydrolysis by trehalase [2]: hydrolyzed by trehalase into glucose molecules |
| OC[C@H]1O[C@H](O[C@H]2O[C@H](CO)[C@@H](O[C@H]3O[C@H](CO)[C@@H](O[C@H]4O[C@H](CO)[C@@H](O[C@H]5O[C@H](CO)[C@@H](O[C@H]6O[C@H](CO)[C@@H](O)[C@H](O)[C@H]6O)[C@H](O)[C@H]5O)[C@H](O)[C@H]4O)[C@H](O)[C@H]3O)[C@H](O)[C@H]2O)[C@H](O)[C@@H](O)[C@@H]1O [P IV, α-maltotetraosyl trehalose] | one mole of maltose and one mole of P II | 68.8 | 0.4 | 30.8 | 0.27 | 68.3 | 31.7 | 4.09 | 0.016 | 3-6% | 69.5 | 0.3 | 30.2 | hydrolyzed by α-amylase into lower molecular weight oligosaccharides | 1.6 | 7.5 | 40.4 | 47.2 | 3.3 | no mouse died | LD50 [8]: ≥ 50000 mg/kg |
| OC[C@H]1O[C@H](O[C@H]2O[C@H](CO)[C@@H](O[C@H]3O[C@H](CO)[C@@H](O)[C@H](O)[C@H]3O)[C@H](O)[C@H]2O)[C@H](O)[C@@H](O)[C@@H]1O [P I, α-glucosyl trehalose] | not hydrolyzed | 37.2 | 0.4 | 62.4 | 0.83 | 36.2 | 63.8 | 1.07 | 0.027 | 3-6% | 36.5 | 0.5 | 63.0 | not substantially hydrolyzed | 0 | 0.4 | 2.3 | 97.3 | 0 | no mouse died |  |
| OC[C@H]1O[C@H](O[C@H]2O[C@H](CO)[C@@H](O[C@H]3O[C@H](CO)[C@@H](O[C@H]4O[C@H](CO)[C@@H](O[C@H]5O[C@H](CO)[C@@H](O[C@H]6O[C@H](CO)[C@@H](O[C@H]7O[C@H](CO)[C@@H](O)[C@H](O)[C@H]7O)[C@H](O)[C@H]6O)[C@H](O)[C@H]5O)[C@H](O)[C@H]4O)[C@H](O)[C@H]3O)[C@H](O)[C@H]2O)[C@H](O)[C@@H](O)[C@@H]1O [P V, α-maltopentaosyl trehalose] | two moles of maltose and one mole of P I | 73.4 | 0.1 | 26.5 | 0.23 | 72.9 | 27.1 | 5.11 | 0.015 | 3-6% | 71.4 | 0.3 | 28.3 | hydrolyzed by α-amylase into lower molecular weight oligosaccharides | 1.0 | 8.6 | 35.3 | 10.2 | 44.9 | no mouse died | LD50 [8]: ≥ 50000 mg/kg |
